Legend:
hTLR9 = biological target: T1, hTLR9 (Homo sapiens, UniProt Q9NR96); experiment: HEK-Blue hTLR9 SEAP reporter agonist assay; type: cell-based; conditions: HEK-Blue hTLR9 cells, highest concentration 50 μM
T1 construct: host or cells: HEK-Blue hTLR9
T1 sequence (Q9NR96 26-1032): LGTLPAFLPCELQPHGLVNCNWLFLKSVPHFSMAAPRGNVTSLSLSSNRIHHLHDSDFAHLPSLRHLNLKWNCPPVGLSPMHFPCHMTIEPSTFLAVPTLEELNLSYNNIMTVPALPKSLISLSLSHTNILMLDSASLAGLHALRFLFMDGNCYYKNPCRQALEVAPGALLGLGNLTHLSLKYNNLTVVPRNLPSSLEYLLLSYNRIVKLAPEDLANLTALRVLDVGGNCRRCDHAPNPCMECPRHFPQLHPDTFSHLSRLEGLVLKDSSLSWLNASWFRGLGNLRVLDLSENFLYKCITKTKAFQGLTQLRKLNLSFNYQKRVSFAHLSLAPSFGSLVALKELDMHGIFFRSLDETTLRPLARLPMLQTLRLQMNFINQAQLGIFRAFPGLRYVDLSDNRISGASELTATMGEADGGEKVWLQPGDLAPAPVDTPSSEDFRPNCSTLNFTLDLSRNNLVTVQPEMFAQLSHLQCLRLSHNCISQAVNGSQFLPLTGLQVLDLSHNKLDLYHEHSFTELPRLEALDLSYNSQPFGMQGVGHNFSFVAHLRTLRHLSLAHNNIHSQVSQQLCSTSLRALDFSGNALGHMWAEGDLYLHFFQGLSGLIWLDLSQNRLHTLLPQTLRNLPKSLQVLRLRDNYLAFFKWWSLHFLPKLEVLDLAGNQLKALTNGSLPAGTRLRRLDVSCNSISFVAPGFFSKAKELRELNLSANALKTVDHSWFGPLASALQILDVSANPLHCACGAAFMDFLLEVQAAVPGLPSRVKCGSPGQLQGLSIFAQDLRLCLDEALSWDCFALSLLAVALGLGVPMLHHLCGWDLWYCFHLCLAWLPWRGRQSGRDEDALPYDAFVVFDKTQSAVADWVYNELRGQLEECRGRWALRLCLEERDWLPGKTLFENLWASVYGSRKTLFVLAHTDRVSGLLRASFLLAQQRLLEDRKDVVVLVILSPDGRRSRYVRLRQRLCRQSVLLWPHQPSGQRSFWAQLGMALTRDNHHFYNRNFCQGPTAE
From the text: HEK-Blue™ hTLR4, 7, 8 and 9 cell lines were purchased from InvivoGen (Hong Kong). The cells express the human TLR gene and NF-κB/AP-1-inducible SEAP (secreted embryonic alkaline phosphatase) reporter gene. SEAP levels produced upon TLR stimulation can be determined by QUANTI-Blue™. In the cell-based assay, the main reagents used were QUANTI-Blue™ (InvivoGen) and ATPlite 1 Step (Perkin Elmer). The main instruments used were the microplate reader SpectraMax 340PC (Molecular Device) and Envision (Perkin Elmer). Motolimod and DN052 were synthesized in house. […] The compounds were in 10 mM stock solution in DMSO and stored at − 20°C. The compounds were serially diluted in the concentration range from 0.5 nM to 15 μM (up to 50 μM in the hTLR4, hTLR7 and hTLR9 assays) and added to 96-well plates. DMSO was used as the negative control. LPS-EK, R848, motolimod and ODN2006 were used as the positive control for TLR4, 7, 8 and 9, respectively. The cells were cultured and treated with the compounds at 37°C, 5%CO2 for 24 h. […] After 1.5 h of incubation, the optical density was measured using the spectrophotometer at 650 nm in the microplate reader of SpectraMax 340PC. The cell viability of each well was determined using ATPlite 1 Step following the manufacturer’s instruction. The luminescence signal in each well of plates was measured in the microplate reader of Envision.

hERG = biological target: T2, hERG (Homo sapiens, UniProt Q12809); experiment: hERG assay, whole-cell recordings with automated QPatch in CHO cells; type: cell-based
T2 construct: expressed in transfected cells; host or cells: CHO
T2 sequence (Q12809 whole entry): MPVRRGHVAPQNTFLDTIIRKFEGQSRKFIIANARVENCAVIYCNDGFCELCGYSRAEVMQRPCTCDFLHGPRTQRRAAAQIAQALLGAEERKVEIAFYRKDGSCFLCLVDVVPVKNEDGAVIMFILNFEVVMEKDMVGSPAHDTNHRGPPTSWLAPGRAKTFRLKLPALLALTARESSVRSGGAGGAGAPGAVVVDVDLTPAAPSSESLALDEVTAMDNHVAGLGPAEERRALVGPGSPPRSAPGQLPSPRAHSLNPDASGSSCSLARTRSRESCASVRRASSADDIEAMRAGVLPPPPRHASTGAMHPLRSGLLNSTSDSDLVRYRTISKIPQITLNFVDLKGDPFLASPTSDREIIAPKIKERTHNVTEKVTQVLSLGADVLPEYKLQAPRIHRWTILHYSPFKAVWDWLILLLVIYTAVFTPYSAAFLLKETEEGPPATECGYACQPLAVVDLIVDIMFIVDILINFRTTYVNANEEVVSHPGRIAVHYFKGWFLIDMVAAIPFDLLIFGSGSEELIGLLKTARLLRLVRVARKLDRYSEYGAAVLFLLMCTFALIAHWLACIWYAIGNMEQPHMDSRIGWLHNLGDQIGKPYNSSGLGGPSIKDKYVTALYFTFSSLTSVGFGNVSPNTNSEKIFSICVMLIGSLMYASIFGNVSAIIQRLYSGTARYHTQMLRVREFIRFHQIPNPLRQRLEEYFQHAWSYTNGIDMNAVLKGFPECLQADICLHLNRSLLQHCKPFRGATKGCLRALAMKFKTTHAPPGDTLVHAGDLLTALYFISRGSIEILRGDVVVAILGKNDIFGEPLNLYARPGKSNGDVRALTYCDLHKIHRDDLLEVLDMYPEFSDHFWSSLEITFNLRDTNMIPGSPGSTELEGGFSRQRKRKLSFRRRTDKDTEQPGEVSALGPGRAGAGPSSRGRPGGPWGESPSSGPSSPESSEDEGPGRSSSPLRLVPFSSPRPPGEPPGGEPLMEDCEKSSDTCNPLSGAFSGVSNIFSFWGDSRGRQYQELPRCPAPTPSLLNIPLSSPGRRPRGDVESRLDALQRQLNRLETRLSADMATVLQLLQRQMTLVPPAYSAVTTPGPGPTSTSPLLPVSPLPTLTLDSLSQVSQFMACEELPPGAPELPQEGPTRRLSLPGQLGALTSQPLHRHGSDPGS
Experimental: hERG assay was conducted using CHO cell line stably transduced with hERG cDNA. Whole-cell recordings were performed using automated QPatch (Sophion Biosciences). Data were analyzed using Assay Software provided by Sophion (assay software V5.0), Microsoft Excel and GraphPad Prism.

EC50 (hTLR9): > 50 µM
SMILES: CCCN(CCC)C(=O)C1=Cc2ccc(-c3ccc(C(=O)N4CCCC4)cc3)cc2N=C(N)C1 [Motolimod, motolimod]
IC50 (hERG): 3.84 µM

From article PMC8607422, “Development of a novel TLR8 agonist for cancer immunotherapy” (Molecular Biomedicine, 2020)
